Measured values from patent US11851391B2, “Antifungal compounds and methods of forming the same” (University of Kentucky Research Foundation, priority 2018, dated 2023).
Values after ≈ are worked out from the molar mass of the structure shown. Where two headings read alike, the source gives them in different places.

What was measured:
[1] = tested on: C. albicans ATCC MYA-2310(S) (strain E); assay: MIC determination, in vitro antifungal assay (CLSI M27-A3); type: cell-based, Candida albicans; settings: Candida albicans, 48 h, MIC-0, 48 h at 35° C., read-out: MIC
Method: (§1) The activity of N,N′-diaryl-bishydrazones 7-22 was tested against a panel of seven strains of C. albicans: ATCC 10231(R) (A), ATCC 64124(R) (B), ATCC MYA-2876(S) (C), ATCC 90819(R) (D), ATCC MYA-2310(S) (E), ATCC MYA-1237(R) (F), and ATCC MYA-1003(R) (G). The activity of these bishydrazones 7-22 was also explored against a panel of three non-albicans Candida strains: C. glabrata ATCC 2001 (H), C. krusei ATCC 6258 (I), and C. parapsilosis ATCC 22019 (J). Finally, the activity of these bishydrazones 7-22 was explored against three Aspergillus strains: A. flavus ATCC MYA-3631 (K), A. nidulans ATCC 38163 (L), and A. terreus ATCC MYA-3633 (M).
(§2) Candida albicans ATCC 10231 (A), C. albicans ATCC 64124 (B), and C. albicans ATCC MYA-2876 (C) were kindly provided by Dr. Jon Y. Takemoto (Utah State University, Logan, UT, USA). C. albicans ATCC 90819 (D), C. albicans ATCC MYA-2310 (E), C. albicans ATCC MYA-1237 (F), C. albicans ATCC MYA-1003 (G), Candida glabrata ATCC 2001 (H), Candida krusei ATCC 6258 (I), Candida parapsilosis ATCC 22019 (J), Aspergillus flavus ATCC MYA-3631 (K), and Aspergillus terreus ATCC MYA-3633 (M) were obtained from the American Type Culture Collection (ATCC; Manassas, VA, USA). Aspergillus nidulans ATCC 38163 (L) was received from Dr. Jon S. Thorson (University of Kentucky, Lexington, KY, USA). Filamentous fungi and yeasts were cultivated at 35° C. in RPMI 1640 medium (with 1-glutamine, without sodium biocarbonate, Sigma-Aldrich, St. Louis, MO) buffered to a pH of 7.0 with 0.165 M morpholinepropanesulfonic acid (MOPS) buffer (Sigma-Aldrich).
(§3) The MIC values of compounds 7a-24c against yeast cells (strains A-J) were determined in 96-well plates as described in the CLSI document M27-A3 with minor modifications. A single colony of freshly prepared yeast cells was used to inoculate 5 mL of yeast extract peptone dextrose (YPD) broth prior to incubation overnight with shaking at 200 rpm at 35° C. From the actively growing yeast culture, 100 μL were then transferred to 900 μL of sterile ddH2O and re-adjusted to achieve OD600 of 0.12 (˜1×10^6 CFU/mL). The cell suspension was further diluted to achieve 2-4×10^3 CFU/mL in RPMI 1640 medium. […] The final concentration of DMSO was ensured to be <1.25% in all experiments. The MIC values for compounds 7a-24c and CAS were defined as the minimum drug concentration that yielded complete inhibition (also known as MIC-0).

[2] = tested on: C. albicans ATCC MYA-1237(R) (strain F); assay: as above; type: cell-based, Candida albicans; settings: Candida albicans, 48 h, MIC-0, 48 h at 35° C., read-out: MIC
Method: as §1, §2, §3

[3] = tested on: C. albicans ATCC 90819(R) (strain D); assay: as above; type: cell-based, Candida albicans; settings: Candida albicans, ATCC90819, 48 h, MIC-0, 48 h at 35° C., read-out: MIC
Method: as §1, §2, §3

[4] = tested on: C. albicans ATCC 64124(R) (strain B); assay: as above; type: cell-based, Candida albicans; settings: Candida albicans, ATCC64124, 48 h, strain B; MIC-0; 48 h at 35° C.; read-out: MIC
Method: as §1, §2, §3

[5] = tested on: Candida parapsilosis ATCC 22019 (strain J); assay: as above; type: cell-based; settings: strain J, MIC-0, 48 h at 35° C.
Method: as §1, §2, §3

[6] = tested on: Candida albicans ATCC 10231(R) (strain A); assay: as above; type: cell-based; settings: MIC-0 (no visible growth), 48 h at 35° C.
Method: as §1, §2, §3

[7] = tested on: Candida krusei ATCC 6258 (strain I); assay: as above; type: cell-based; settings: MIC-0, 48 h at 35° C.
Method: as §1, §2
(§4) A single colony of freshly prepared yeast cells was used to inoculate 5 mL of yeast extract peptone dextrose (YPD) broth prior to incubation overnight with shaking at 200 rpm at 35° C. From the actively growing yeast culture, 100 μL were then transferred to 900 μL of sterile ddH2O and re-adjusted to achieve OD600 of 0.12 (˜1×10^6 CFU/mL). The cell suspension was further diluted to achieve 2-4×10^3 CFU/mL in RPMI 1640 medium. […] The final concentration of DMSO was ensured to be <1.25% in all experiments.

[8] = tested on: Candida glabrata ATCC 2001 (strain H); assay: as above; type: cell-based; settings: Nakaseomyces glabratus, ATCC2001, 48 h, MIC-0, 48 h at 35° C., read-out: MIC
Method: as §1, §2, §4

[9] = tested on: Aspergillus terreus ATCC MYA-3633 (strain M); assay: MIC determination against filamentous fungi (CLSI M38-A2); type: cell-based; settings: Aspergillus terreus, 48 h, MIC-0, 48 h at 35° C., read-out: MIC
Method: as §1, §2
(§5) Similarly, the MIC values of compounds 7a-24c, as well as that of the two control drugs against filamentous fungi (strains K-M) were determined as previously described in CLSI document M38-A2. Spores were harvested from sporulating cultures growing on potato dextrose agar (PDA) by filtration through sterile glass wool and enumerated by using a hemocytometer to obtain the desired inoculum size. […] Spore suspensions were added to the wells to afford a final concentration of 5×10^5 CFU/mL. The plates were incubated at 35° C. for 48 h. The MIC values of compounds 7a-24c and CAS against filamentous fungi were based on the complete inhibition of growth when compared to the growth control (MIC-0). […] Each test was performed in triplicate.

[10] = tested on: Aspergillus nidulans ATCC 38163 (strain L); assay: as above; type: cell-based; settings: MIC-0, 48 h at 35° C.
Method: as §1, §2, §5

[11] = tested on: Aspergillus flavus ATCC MYA-3631 (strain K); assay: as above; type: cell-based; settings: MIC-0, 48 h at 35° C.
Method: as §1, §2, §5

[12] = tested on: murine red blood cells (mRBCs); settings: for Percentage of hemolysis (±SDEV): mouse, 60 min
Method: Thus, the hemolytic activity for these bishydrazones was investigated against murine red blood cells (mRBCs).
Murine red blood cells (mRBCs) were prepared by suspending 1 mL of murine blood in 3 mL of PBS prior to centrifugation at 1,000 rpm for 5 min. The mRBCs were washed four times in PBS and resuspended in the same buffer to a final concentration of 10^7 mRBC/mL. […] The tubes were incubated at 37° C. for 60 min. […] Eppendorf tubes containing 200 μL of ddH2O and 2 μL of 1% v/v Triton™ X-100 served as negative (blank) and positive controls, respectively. The percentage of hemolysis was calculated using the following equation: % hemolysis=[(absorbance of sample)−(absorbance of blank)]×100/(absorbance of positive control).

[13] = tested on: C. albicans ATCC MYA-2876(S) (strain C); assay: MIC determination, in vitro antifungal assay (CLSI M27-A3); type: cell-based, Candida albicans; settings: Candida albicans, 48 h, MIC-0, 48 h at 35° C., read-out: MIC
Method: as §1, §2, §4

[14] = tested on: C. albicans ATCC MYA-1003(R) (strain G); assay: as above; type: cell-based, Candida albicans; settings: Candida albicans, 48 h, MIC-0, 48 h at 35° C., read-out: MIC
Method: as §1, §2, §4

[15] = tested on: various yeast strains and filamentous fungi (strains A-M); assay: Antifungal activity over the whole panel (summary of MIC data); type: cell-based, Candida and Aspergillus strains; settings: against all fungal strains tested, with named exceptions; read-out: antifungal activity class based on MIC values
Method: as §1, §3, §5

[16] = Lodderomyces parapsilosis, ATCC22019, 48 h, read-out: MIC
[17] = Candida albicans, ATCC10231, 48 h, read-out: MIC
[18] = Pichia kudriavzevii, ATCC6258, 48 h, read-out: MIC
[19] = Aspergillus nidulans, ATCC38163, 48 h, read-out: MIC
[20] = Aspergillus flavus, 48 h, read-out: MIC

SMILES	MIC [1] [µg/mL]	MIC [2] [µg/mL]	MIC [3] [µg/mL]	MIC [4] [µg/mL]	MIC [5, 16] [µg/mL]	MIC [6, 17] [µg/mL]	MIC [7, 18] [µg/mL]	MIC [8] [µg/mL]	MIC [9] [µg/mL]	MIC [10, 19] [µg/mL]	MIC [11, 20] [µg/mL]	hemolytic activity (in words) [12]	Percentage of hemolysis (±SDEV) ([12]; 0.975 μg/mL) [%]	Percentage of hemolysis (±SDEV) ([12]; 1.95 μg/mL) [%]	Percentage of hemolysis (±SDEV) ([12]; 3.9 μg/mL) [%]	Percentage of hemolysis (±SDEV) ([12]; 7.8 μg/mL) [%]	Percentage of hemolysis (±SDEV) ([12]; 15.6 μg/mL) [%]	Percentage of hemolysis (±SDEV) ([12]; 31.3 μg/mL) [%]	MIC [13] [µg/mL]	MIC [14] [µg/mL]	other results
C(=N\Nc1ccccc1)/c1ccc(-c2ccc(/C=N/Nc3ccccc3)cc2)cc1 [Compound 7b]	> 31.3	> 31.3	31.3 (≈ 80.2 µM)	> 31.3	> 31.3	7.8 (≈ 20 µM)	> 31.3	> 31.3	15.6 (≈ 39.9 µM)	1.95 to 3.9 (≈ 4.99 to 9.99 µM)	1.95 to 3.9 (≈ 4.99 to 9.99 µM)	lack of hemolytic activity	0.1 ± 0.1	3.7 ± 1.6	3.4 ± 1.7	2.9 ± 1.1	14.1 ± 6.0	10.8 ± 0.6	> 31.3	> 31.3	MIC [10]: 1.95 µg/mL (≈ 4.99 µM); MIC [11]: 3.9 µg/mL (≈ 9.99 µM)
COc1ccccc1N/N=C(\C)c1ccc(-c2ccc(/C(C)=N/Nc3ccccc3OC)cc2)cc1 [Compound 9c]	> 31.3	> 31.3	> 31.3	> 31.3	31.3 (≈ 65.4 µM)	15.6 (≈ 32.6 µM)	31.3 (≈ 65.4 µM)	> 31.3	> 31.3	> 31.3	> 31.3								> 31.3	31.3 (≈ 65.4 µM)	MIC [6]: 15.6 µg/mL (≈ 32.6 µM); MIC [15]: ≥ 31.3 µg/mL
Fc1cccc(N/N=C/c2ccc(-c3ccc(/C=N/Nc4cccc(F)c4)cc3)cc2)c1 [Compound 12b]	> 31.3	> 31.3	> 31.3	> 31.3	3.9 (≈ 9.14 µM)	7.8 to 15.6 (≈ 18.3 to 36.6 µM)	7.8 to 15.6 (≈ 18.3 to 36.6 µM)	> 31.3	> 31.3	> 31.3	31.3 (≈ 73.4 µM)	lack of hemolytic activity	0.8 ± 0.9	0	3.2 ± 3.0	2.6 ± 1.6	7.7 ± 3.1	10.3 ± 0.2	> 31.3	> 31.3	MIC [5]: 3.9 µg/mL (≈ 9.14 µM); MIC [6]: 7.8 µg/mL (≈ 18.3 µM); MIC [7]: 15.6 µg/mL (≈ 36.6 µM)
